Read-outs that look alike come from different tables or passages of the source.
Columns and labels:
[1] = tested on: AsPC1 pancreatic cancer cell line
Experimental: (§1) Mock-treated cells were cultured with the equivalent volume of PBS alone.
(§2) Total RNA was isolated from cultured cells using TRIZOL reagent (invitrogen, Carlsbad, Calif.) and purified using RNeasy Mini Kit (Qiagen, Valencia, Calif.). First- and second-stranded cDNA was synthesized from 10 μg of total RNA using 17-dT) primer (Genset Corp., La Jolla, Calif.) and Superscript Choice system (Invitrogen). Labeled cRNA was synthesized from the purified cDNA by in vitro transcription reaction using the BioArray High Yield RNA Transcript Labeling Kit (Enzo Diagnostics, Inc., Farmingdale, N.Y.) at 37° C. for 6 h. The cRNA was fragmented at 94° C. for 35 min. in a fragmentation buffer [40 mM Tris-acetate @ pH 8.1, 100 mM potassium acestate, and 30 mM magnesium acetate]. The fragmented cRNA was then hybridized to the Human Genome U133A chips (Affymetrix, Santa Clara, Calif.) with 18462 unique gene/EST transcripts at 45° C. for 16 h. The washing and staining procedure was performed in the Affymetrix Fluidics Station according to the manufacturer's instructions. The probes were then scanned using a laser scanner, and signal intensity for each transcript (background-subtracted and adjusted for noise) was calculated using Microarray Suite Software 5.0 (Affymetrix).
(§3) Fold change analysis of signal intensities obtained from oligonucleotide microarrays between the two treatment groups was performed using Data Mining software (Afrymetrix).
(§4) The global changes in gene expression proxies induced by 5Aza-dC in four pancreatic cancer cell lines (AsPCl, Hs766T, MiaPaCa2, and Panel) were determined using the Afrymetrix U133 oligonucleotide microarrays with 18462 probes sets (transcripts) covering over 13000 full-length sequences of known genes.

[2] = tested on: Hs766T pancreatic cancer cell line
Experimental: as §1, §2, §3, §4

[3] = tested on: Panc1 pancreatic cancer cell line
Experimental: as §1, §2, §3, §4

## Nc1ncn([C@H]2C[C@H](O)[C@@H](CO)O2)c(=O)n1 [5Aza-dC, 5 aza 2′ deoxycytidine]
[1]; ANGPT2, AsPC1
  Fold-change after 5Aza-dC treatment: 6.15 fold
[1]; AsPC1
  transcripts with >5-fold increase, share of the 18462 transcripts analyzed: 1.2%
[1]; AsPC1, vs mock-treated
  transcripts with substantial increase (>5-fold) in signal intensities: 225 transcripts
[1]; BARD1, AsPC1
  Fold-change after 5Aza-dC treatment: −1.07 fold
[1]; BNIP3, AsPC1
  Fold-change after 5Aza-dC treatment: 6.12 fold
[1]; BST2, AsPC1
  Fold-change after 5Aza-dC treatment: 1.97 fold
[1]; CACNA1G, AsPC1
  Fold-change after 5Aza-dC treatment: 1.83 fold
[1]; CCNE2, AsPC1
  Fold-change after 5Aza-dC treatment: 1.48 fold
[1]; CDKN1A (p21), AsPC1
  Fold-change after 5Aza-dC treatment: 2.21 fold
[1]; CDKN1C, AsPC1
  Fold-change after 5Aza-dC treatment: 0.6 fold
[1]; CLDN5, AsPC1
  Fold-change after 5Aza-dC treatment: 22.34 fold
[1]; CSF1, AsPC1
  Fold-change after 5Aza-dC treatment: 1.12 fold
[1]; DR3, AsPC1
  Fold-change after 5Aza-dC treatment: 1.47 fold
[1]; FOXE1, AsPC1
  Fold-change after 5Aza-dC treatment: 3.51 fold
[1]; GAGE1, AsPC1
  Fold-change after 5Aza-dC treatment: −0.54 fold
[1]; GAGE4, AsPC1
  Fold-change after 5Aza-dC treatment: 15.66 fold
[1]; GAGE6, AsPC1
  Fold-change after 5Aza-dC treatment: 15.59 fold
[1]; GAGE7, AsPC1
  Fold-change after 5Aza-dC treatment: 14.08 fold
[1]; HOXA1, AsPC1
  Fold-change after 5Aza-dC treatment: 25.8 fold
[1]; IGF2, AsPC1
  Fold-change after 5Aza-dC treatment: 0.55 fold
[1]; IL1R1, AsPC1
  Fold-change after 5Aza-dC treatment: 7.51 fold
[1]; ISG20, AsPC1
  Fold-change after 5Aza-dC treatment: −1.12 fold
[1]; JPH3, AsPC1
  Fold-change after 5Aza-dC treatment: 1.27 fold
[1]; KLK10, AsPC1
  Fold-change after 5Aza-dC treatment: 1.03 fold
[1]; LDOC1, AsPC1
  Fold-change after 5Aza-dC treatment: 8.99 fold
[1]; LHX1, AsPC1
  Fold-change after 5Aza-dC treatment: 5.22 fold
[1]; MAGE1, AsPC1
  Fold-change after 5Aza-dC treatment: 1.52 fold
[1]; MATN1, AsPC1
  Fold-change after 5Aza-dC treatment: −1.44 fold
[1]; NEFH, AsPC1
  Fold-change after 5Aza-dC treatment: 2.94 fold
[1]; NPTX2, AsPC1
  Fold-change after 5Aza-dC treatment: 13.97 fold
[1]; PAX6, AsPC1
  Fold-change after 5Aza-dC treatment: 8.94 fold
[1]; PDYN, AsPC1
  Fold-change after 5Aza-dC treatment: 1.33 fold
[1]; PLAT, AsPC1
  Fold-change after 5Aza-dC treatment: −1.15 fold
[1]; PLEK2, AsPC1
  Fold-change after 5Aza-dC treatment: 1.37 fold
[1]; SARP2, AsPC1
  Fold-change after 5Aza-dC treatment: −1.89 fold
[1]; SMARCA1, AsPC1
  Fold-change after 5Aza-dC treatment: 7.89 fold
[1]; ST14, AsPC1
  Fold-change after 5Aza-dC treatment: −1.21 fold
[1]; TIMP3, AsPC1
  Fold-change after 5Aza-dC treatment: 11.89 fold
[1]; TJP2, AsPC1
  Fold-change after 5Aza-dC treatment: −1.24 fold
[1]; TNF, AsPC1
  Fold-change after 5Aza-dC treatment: −1.17 fold
[1]; UCHL1, AsPC1
  Fold-change after 5Aza-dC treatment: 6.62 fold
[1]; WNT7A, AsPC1
  Fold-change after 5Aza-dC treatment: 2.7 fold
[1]; XAGE-1, AsPC1
  Fold-change after 5Aza-dC treatment: 28.59 fold
[1]; granulocytemacrophage colony-stimulating factor (M11734), AsPC1
  Fold-change after 5Aza-dC treatment: 1.44 fold
[1]; interferon, alpha-inducible protein (NM_022873), AsPC1
  Fold-change after 5Aza-dC treatment: 4.48 fold
[1]; p53-induced protein (PIGII), AsPC1
  Fold-change after 5Aza-dC treatment: −1.22 fold
[1]; reprimo, AsPC1
  Fold-change after 5Aza-dC treatment: 1.66 fold
[1]; stratifin (14-3-3 sigma), AsPC1
  Fold-change after 5Aza-dC treatment: −1.48 fold
[1]; stromal antigen 3 (STAG5), AsPC1
  Fold-change after 5Aza-dC treatment: 14.06 fold
[1]; testin, AsPC1
  Fold-change after 5Aza-dC treatment: −1.23 fold
[2]; ANGPT2, Hs766T
  Fold-change after 5Aza-dC treatment: −0.44 fold
[2]; BARD1, Hs766T
  Fold-change after 5Aza-dC treatment: 5.21 fold
[2]; BNIP3, Hs766T
  Fold-change after 5Aza-dC treatment: −1.75 fold
[2]; BST2, Hs766T
  Fold-change after 5Aza-dC treatment: 1.36 fold
[2]; CACNA1G, Hs766T
  Fold-change after 5Aza-dC treatment: 0.5 fold
[2]; CCNE2, Hs766T
  Fold-change after 5Aza-dC treatment: 5.28 fold
[2]; CDH3, Hs766T
  Fold-change after 5Aza-dC treatment: 0.89 fold
[2]; CDKN1A (p21), Hs766T
  Fold-change after 5Aza-dC treatment: 1.04 fold
[2]; CDKN1C, Hs766T
  Fold-change after 5Aza-dC treatment: 5.42 fold
[2]; CLDN5, Hs766T
  Fold-change after 5Aza-dC treatment: 1.21 fold
[2]; CSF1, Hs766T
  Fold-change after 5Aza-dC treatment: 5.75 fold
[2]; DR3, Hs766T
  Fold-change after 5Aza-dC treatment: −1.46 fold
[2]; FOXE1, Hs766T
  Fold-change after 5Aza-dC treatment: 5.63 fold
[2]; GAGE1, Hs766T
  Fold-change after 5Aza-dC treatment: 0.48 fold
[2]; GAGE3, Hs766T
  Fold-change after 5Aza-dC treatment: −2.57 fold
[2]; GAGE4, Hs766T
  Fold-change after 5Aza-dC treatment: −1.1 fold
[2]; GAGE6, Hs766T
  Fold-change after 5Aza-dC treatment: 1.09 fold
[2]; GAGE7, Hs766T
  Fold-change after 5Aza-dC treatment: −1.12 fold
[2]; HOXA1, Hs766T
  Fold-change after 5Aza-dC treatment: −1.61 fold
[2]; Hs766T
  transcripts with >5-fold increase, share of the 18462 transcripts analyzed: 0.9%
[2]; Hs766T, vs mock-treated
  transcripts with substantial increase (>5-fold) in signal intensities: 167 transcripts
[2]; IGF2, Hs766T
  Fold-change after 5Aza-dC treatment: −0.41 fold
[2]; IL1R1, Hs766T
  Fold-change after 5Aza-dC treatment: −2.59 fold
[2]; ISG20, Hs766T
  Fold-change after 5Aza-dC treatment: 1.02 fold
[2]; JPH3, Hs766T
  Fold-change after 5Aza-dC treatment: 5.27 fold
[2]; KLK10, Hs766T
  Fold-change after 5Aza-dC treatment: 1.16 fold
[2]; LDOC1, Hs766T
  Fold-change after 5Aza-dC treatment: −1.86 fold
[2]; LHX1, Hs766T
  Fold-change after 5Aza-dC treatment: 1.92 fold
[2]; MAGE1, Hs766T
  Fold-change after 5Aza-dC treatment: 4.45 fold
[2]; MATN1, Hs766T
  Fold-change after 5Aza-dC treatment: 6.83 fold
[2]; NEFH, Hs766T
  Fold-change after 5Aza-dC treatment: −1.24 fold
[2]; NPTX2, Hs766T
  Fold-change after 5Aza-dC treatment: −2.6 fold
[2]; PAX6, Hs766T
  Fold-change after 5Aza-dC treatment: 1.36 fold
[2]; PDYN, Hs766T
  Fold-change after 5Aza-dC treatment: 6.38 fold
[2]; PLAT, Hs766T
  Fold-change after 5Aza-dC treatment: −1.73 fold
[2]; PLEK2, Hs766T
  Fold-change after 5Aza-dC treatment: 1.12 fold
[2]; SARP2, Hs766T
  Fold-change after 5Aza-dC treatment: 1.35 fold
[2]; SMARCA1, Hs766T
  Fold-change after 5Aza-dC treatment: −0.79 fold
[2]; ST14, Hs766T
  Fold-change after 5Aza-dC treatment: −4.72 fold
[2]; TIMP3, Hs766T
  Fold-change after 5Aza-dC treatment: −3.67 fold
[2]; TJP2, Hs766T
  Fold-change after 5Aza-dC treatment: −1.56 fold
[2]; TNF, Hs766T
  Fold-change after 5Aza-dC treatment: −4.9 fold
[2]; UCHL1, Hs766T
  Fold-change after 5Aza-dC treatment: 1.45 fold
[2]; WNT7A, Hs766T
  Fold-change after 5Aza-dC treatment: 9.03 fold
[2]; XAGE-1, Hs766T
  Fold-change after 5Aza-dC treatment: −0.5 fold
[2]; granulocytemacrophage colony-stimulating factor (M11734), Hs766T
  Fold-change after 5Aza-dC treatment: 5.53 fold
[2]; interferon, alpha-inducible protein (NM_022873), Hs766T
  Fold-change after 5Aza-dC treatment: −4.46 fold
[2]; p53-induced protein (PIGII), Hs766T
  Fold-change after 5Aza-dC treatment: 1.04 fold
[2]; reprimo, Hs766T
  Fold-change after 5Aza-dC treatment: 6.65 fold
[2]; stratifin (14-3-3 sigma), Hs766T
  Fold-change after 5Aza-dC treatment: −1.64 fold
[2]; stromal antigen 3 (STAG5), Hs766T
  Fold-change after 5Aza-dC treatment: 1.01 fold
[2]; testin, Hs766T
  Fold-change after 5Aza-dC treatment: 1.6 fold
[3]; ANGPT2, Panc1
  Fold-change after 5Aza-dC treatment: 0.91 fold
[3]; BARD1, Panc1
  Fold-change after 5Aza-dC treatment: −1.01 fold
[3]; BNIP3, Panc1
  Fold-change after 5Aza-dC treatment: −1.07 fold
[3]; BST2, Panc1
  Fold-change after 5Aza-dC treatment: −1.04 fold
[3]; CACNA1G, Panc1
  Fold-change after 5Aza-dC treatment: 5.26 fold
[3]; CCNE2, Panc1
  Fold-change after 5Aza-dC treatment: 1.52 fold
[3]; CDH3, Panc1
  Fold-change after 5Aza-dC treatment: 2.31 fold
[3]; CDKN1A (p21), Panc1
  Fold-change after 5Aza-dC treatment: 1.93 fold
[3]; CDKN1C, Panc1
  Fold-change after 5Aza-dC treatment: 3.77 fold
[3]; CLDN5, Panc1
  Fold-change after 5Aza-dC treatment: 1.88 fold
[3]; CSF1, Panc1
  Fold-change after 5Aza-dC treatment: −1.91 fold
[3]; FOXE1, Panc1
  Fold-change after 5Aza-dC treatment: 1.7 fold
[3]; GAGE1, Panc1
  Fold-change after 5Aza-dC treatment: 0.46 fold
[3]; GAGE3, Panc1
  Fold-change after 5Aza-dC treatment: 9.78 fold
[3]; GAGE4, Panc1
  Fold-change after 5Aza-dC treatment: 35.44 fold
[3]; GAGE6, Panc1
  Fold-change after 5Aza-dC treatment: 35.5 fold
[3]; GAGE7, Panc1
  Fold-change after 5Aza-dC treatment: 36.1 fold
[3]; HOXA1, Panc1
  Fold-change after 5Aza-dC treatment: 1.26 fold
[3]; IGF2, Panc1
  Fold-change after 5Aza-dC treatment: 9.41 fold
[3]; IL1R1, Panc1
  Fold-change after 5Aza-dC treatment: 1.37 fold
[3]; ISG20, Panc1
  Fold-change after 5Aza-dC treatment: −0.84 fold
[3]; JPH3, Panc1
  Fold-change after 5Aza-dC treatment: −4.18 fold
[3]; KLK10, Panc1
  Fold-change after 5Aza-dC treatment: −1.05 fold
[3]; LDOC1, Panc1
  Fold-change after 5Aza-dC treatment: 9.19 fold
[3]; LHX1, Panc1
  Fold-change after 5Aza-dC treatment: 1.79 fold
[3]; MAGE1, Panc1
  Fold-change after 5Aza-dC treatment: 7.32 fold
[3]; MATN1, Panc1
  Fold-change after 5Aza-dC treatment: 3.61 fold
[3]; NEFH, Panc1
  Fold-change after 5Aza-dC treatment: 4.59 fold
[3]; NPTX2, Panc1
  Fold-change after 5Aza-dC treatment: 18.94 fold
[3]; PAX6, Panc1
  Fold-change after 5Aza-dC treatment: 4.45 fold
[3]; PDYN, Panc1
  Fold-change after 5Aza-dC treatment: 4.84 fold
[3]; PLAT, Panc1
  Fold-change after 5Aza-dC treatment: 2.13 fold
[3]; PLEK2, Panc1
  Fold-change after 5Aza-dC treatment: 1.08 fold
[3]; Panc1
  transcripts with >5-fold increase, share of the 18462 transcripts analyzed: 0.6%
[3]; Panc1, vs mock-treated
  transcripts with substantial increase (>5-fold) in signal intensities: 116 transcripts
[3]; SARP2, Panc1
  Fold-change after 5Aza-dC treatment: −1.47 fold
[3]; SMARCA1, Panc1
  Fold-change after 5Aza-dC treatment: 1.01 fold
[3]; ST14, Panc1
  Fold-change after 5Aza-dC treatment: 5.1 fold
[3]; TIMP3, Panc1
  Fold-change after 5Aza-dC treatment: 1.1 fold
[3]; TJP2, Panc1
  Fold-change after 5Aza-dC treatment: 1.49 fold
[3]; TNF, Panc1
  Fold-change after 5Aza-dC treatment: 1.18 fold
[3]; UCHL1, Panc1
  Fold-change after 5Aza-dC treatment: 2.37 fold
[3]; WNT7A, Panc1
  Fold-change after 5Aza-dC treatment: 3.57 fold
[3]; XAGE-1, Panc1
  Fold-change after 5Aza-dC treatment: 24.78 fold
[3]; granulocytemacrophage colony-stimulating factor (M11734), Panc1
  Fold-change after 5Aza-dC treatment: 2.17 fold
[3]; interferon, alpha-inducible protein (NM_022873), Panc1
  Fold-change after 5Aza-dC treatment: 1.2 fold
[3]; p53-induced protein (PIGII), Panc1
  Fold-change after 5Aza-dC treatment: 1.04 fold
[3]; reprimo, Panc1
  Fold-change after 5Aza-dC treatment: 1.03 fold
[3]; stratifin (14-3-3 sigma), Panc1
  Fold-change after 5Aza-dC treatment: 1.21 fold
[3]; stromal antigen 3 (STAG5), Panc1
  Fold-change after 5Aza-dC treatment: 6.84 fold
[3]; testin, Panc1
  Fold-change after 5Aza-dC treatment: 1.57 fold

From patent publication US8785614B2, “Aberrantly methylated genes in pancreatic cancer” (The Johns Hopkins University, priority 2003, dated 2014)
